Assays:
Format in all cases: cell-based
[1] = test system: Reh; assay: MTT assay, Reh cells; details: Homo sapiens, 24 h, read-out: Viability rate
[2] = test system: Molt-4; assay: MTT assay, Molt-4 cells; details: Homo sapiens, MOLT-4, 24 h, read-out: Viability rate
[3] = test system: K562; assay: MTT assay, K562 cells; details: Homo sapiens, 24 h, MTT, read-out: Viability rate
Protocol: (§1) K562, Jurkat and Molt-4 cell lines were seeded as 4x10^5/ml, Reh and Nalm-6 cell lines were seeded 5x10^5/ml, Hek293T cell line was seed as 2x10^5/ml.
(§2) MTT assay is a 3-day test. On the first day, cell count was performed in Bio Rad TC-20 device with the help of trypan blue, each cell line was prepared by diluting to the specified concentrations and seeded in a 96-well plate as 100μL to each well and incubated for 1 day.
(§3) On the second day, stock solutions were subsequently diluted to various concentrations (0.3–200 μM) with related medium prior to experiments. Specified concentrations of the compounds were seeded in a 96-well plate as 100μL to each well and incubated for 24 h.
(§4) After incubation (on the third day), to precipitate leukemia cells, the cell plate was centrifuged at 1500 rpm for 5 min. […] The 50 μl of supernatant was discarded from each well and 100 μl of DMSO was added to dissolve the formazan. Plates were shaken for 45 min to dissolve the dye. Then the optical density of each well was measured by using Thermo VarioSkan Flush Multimode Reader Quantum ST5-1100 at 570 nm wavelength.
(§5) Subsequently, viability rate of the cells at each concentration, as percentage, was determined by following formula (1):
(§6) Viability rate (%)=100-[(OD(control)-OD(sample))/OD(control)×100].OD=Optical Density
(§7) The IC50 values were calculated by using GraphPad Prism. All the data presented as the mean of 6 replicates. […] Statistical analysis was performed using dose-response inhibition, log(inhibitor) vs response-variable slope, least squares (ordinary) fit.

[4] = test system: Nalm-6; assay: MTT assay, Nalm-6 cells; details: Homo sapiens, 24 h
Protocol: as §1, §2, §3, §4, §5, §6, §7

[5] = test system: K562, Nalm-6, Molt-4, Reh, Jurkat, Hek293T cell lines; assay: MTT assay, overall judgement over all cell lines; details: overall judgement in words; for 6 and 10: on all cell lines, except Reh
Method in brief: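 MTT viability assay run across a range of compound concentrations in leukemic lines, BCR-ABL positive K562 and BCR-ABL negative Nalm-6, Molt-4, Reh, Jurkat, plus non-leukemic Hek293T. Viability rate calculated per concentration.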

[6] = test system: Jurkat; assay: MTT assay, Jurkat cells; details: Homo sapiens, 24 h, read-out: Viability rate
[7] = MTT assay, Hek293T non-leukemic control cells; details: human, read-out: Viability rate

Cc1ccnc(Nc2cc(NC(=O)c3ccc(CN4CCOCC4)cc3)ccc2C)c1 [Compound 9, N-(4-Methyl-3-((4-methylpyridin-2-yl)amino)phenyl)-4-(morhpolinomethyl)benzamide]
viability at 0.3 µM ([1]; 0.3 μM): 103.8 ± 0.01%
viability at 0.5 µM ([1]; 0.5 μM): 101.3 ± 0.03%
viability at 1 µM ([1]; 1 μM): 100.4 ± 0.01%
viability at 3 µM ([1]; 3 μM): 100.5 ± 0.02%
viability at 5 µM ([1]; 5 μM): 101.8 ± 0.03%
viability at 10 µM ([1]; 10 μM): 103.4 ± 0.02%
viability at 15 µM ([1]; 15 μM): 100.2 ± 0.02%
viability at 20 µM ([1]; 20 μM): 99 ± 0.02%
viability at 30 µM ([1]; 30 μM): 91.4 ± 0.01%
viability at 50 µM ([1]; 50 μM): 88.2 ± 0.02%
viability at 70 µM ([1]; 70 μM): 84.7 ± 0.03%
viability at 100 µM ([1]; 100 μM): 87.1 ± 0.02%
viability at 150 µM ([1]; 150 μM): 85 ± 0.01%
viability at 200 µM ([1]; 200 μM): 82 ± 0.02%
viability at 0.3 µM ([2]; Molt-4, 0.3 μM): 93.2 ± 0.17%
viability at 0.5 µM ([2]; Molt-4, 0.5 μM): 87.8 ± 0.05%
viability at 1 µM ([2]; Molt-4, 1 μM): 78.4 ± 0.11%
viability at 3 µM ([2]; Molt-4, 3 μM): 72.7 ± 0.04%
viability at 5 µM ([2]; Molt-4, 5 μM): 71.7 ± 0.07%
viability at 10 µM ([2]; Molt-4, 10 μM): 69.3 ± 0.04%
viability at 15 µM ([2]; Molt-4, 15 μM): 68.9 ± 0.05%
viability at 20 µM ([2]; Molt-4, 20 μM): 63.5 ± 0.04%
viability at 30 µM ([2]; Molt-4, 30 μM): 62 ± 0.03%
viability at 50 µM ([2]; Molt-4, 50 μM): 61.5 ± 0.07%
viability at 70 µM ([2]; Molt-4, 70 μM): 59.8 ± 0.05%
viability at 100 µM ([2]; Molt-4, 100 μM): 59.5 ± 0.08%
viability at 150 µM ([2]; Molt-4, 150 μM): 58.6 ± 0.06%
viability at 200 µM ([2]; Molt-4, 200 μM): 54.7 ± 0.03%
viability at 0.3 µM ([3]; K562, 0.3 μM): 79.9 ± 0.09%
viability at 0.5 µM ([3]; K562, 0.5 μM): 78.5 ± 0.03%
viability at 1 µM ([3]; K562, 1 μM): 77.3 ± 0.08%
viability at 3 µM ([3]; K562, 3 μM): 77 ± 0.04%
viability at 5 µM ([3]; K562, 5 μM): 75.4 ± 0.09%
viability at 10 µM ([3]; K562, 10 μM): 73.2 ± 0.08%
viability at 15 µM ([3]; K562, 15 μM): 72 ± 0.06%
viability at 20 µM ([3]; K562, 20 μM): 69.1 ± 0.03%
viability at 30 µM ([3]; K562, 30 μM): 69.7 ± 0.07%
viability at 50 µM ([3]; K562, 50 μM): 61.2 ± 0.08%
viability at 70 µM ([3]; K562, 70 μM): 58.1 ± 0.1%
viability at 100 µM ([3]; K562, 100 μM): 51.3 ± 0.06%
viability at 150 µM ([3]; K562, 150 μM): 49.7 ± 0.05%
viability at 200 µM ([3]; K562, 200 μM): 45%
viability at 0.3 µM ([4]; Nalm-6, 0.3 μM, MTT, read-out: Viability rate): 86.4 ± 0.05%
viability at 0.5 µM ([4]; Nalm-6, 0.5 μM, MTT, read-out: Viability rate): 85.2 ± 0.05%
viability at 1 µM ([4]; Nalm-6, 1 μM, MTT, read-out: Viability rate): 72.7 ± 0.04%
viability at 3 µM ([4]; Nalm-6, 3 μM, MTT, read-out: Viability rate): 64.5 ± 0.02%
viability at 5 µM ([4]; Nalm-6, 5 μM, MTT, read-out: Viability rate): 62.6 ± 0.04%
viability at 10 µM ([4]; Nalm-6, 10 μM, MTT, read-out: Viability rate): 53.2 ± 0.03%
viability at 15 µM ([4]; Nalm-6, 15 μM, MTT, read-out: Viability rate): 50.1 ± 0.03%
viability at 20 µM ([4]; Nalm-6, 20 μM, MTT, read-out: Viability rate): 49.2 ± 0.01%
viability at 30 µM ([4]; Nalm-6, 30 μM, MTT, read-out: Viability rate): 48.1 ± 0.01%
viability at 50 µM ([4]; Nalm-6, 50 μM, MTT, read-out: Viability rate): 43.9 ± 0.01%
viability at 70 µM ([4]; Nalm-6, 70 μM, MTT, read-out: Viability rate): 42.8 ± 0.01%
viability at 100 µM ([4]; Nalm-6, 100 μM, MTT, read-out: Viability rate): 42.5 ± 0.01%
viability at 150 µM ([4]; Nalm-6, 150 μM, MTT, read-out: Viability rate): 42.5 ± 0.01%
viability at 200 µM ([4]; Nalm-6, 200 μM, MTT, read-out: Viability rate): 39.2%
IC50 ([4]; Nalm-6, MTT, range 0.3–200 μM, six replicates): 1640 nM
anticancer activity according to MTT assay results [5]: relatively lower activity
viability at 0.3 µM ([6]; 0.3 μM): 82.3 ± 0.05%
viability at 0.5 µM ([6]; 0.5 μM): 82 ± 0.06%
viability at 1 µM ([6]; 1 μM): 82 ± 0.05%
viability at 3 µM ([6]; 3 μM): 81.7 ± 0.05%
viability at 5 µM ([6]; 5 μM): 83 ± 0.04%
viability at 10 µM ([6]; 10 μM): 81.9 ± 0.02%
viability at 15 µM ([6]; 15 μM): 80.4 ± 0.02%
viability at 20 µM ([6]; 20 μM): 79 ± 0.04%
viability at 30 µM ([6]; 30 μM): 72.9 ± 0.07%
viability at 50 µM ([6]; 50 μM): 68.1 ± 0.01%
viability at 70 µM ([6]; 70 μM): 65.1 ± 0.02%
viability at 100 µM ([6]; 100 μM): 49.6 ± 0.07%
viability at 150 µM ([6]; 150 μM): 46.9 ± 0.05%
viability at 200 µM ([6]; 200 μM): 39.1 ± 0.04%
viability at 24 h, 0.3 µM ([7]; Hek293T cells (non-leukemic control cell line), 0.3 μM): 91.7 ± 0.07%
viability at 24 h, 0.5 µM ([7]; Hek293T cells (non-leukemic control cell line), 0.5 μM): 89.8 ± 0.07%
viability at 24 h, 3 µM ([7]; Hek293T cells (non-leukemic control cell line), 3 μM): 87.4 ± 0.07%
viability at 24 h, 5 µM ([7]; Hek293T cells (non-leukemic control cell line), 5 μM): 86.2 ± 0.03%
viability at 24 h, 10 µM ([7]; Hek293T cells (non-leukemic control cell line), 10 μM): 79.3 ± 0.05%
viability at 24 h, 15 µM ([7]; Hek293T cells (non-leukemic control cell line), 15 μM): 78.3 ± 0.03%
viability at 24 h, 20 µM ([7]; Hek293T cells (non-leukemic control cell line), 20 μM): 76.5 ± 0.05%
viability at 24 h, 30 µM ([7]; Hek293T cells (non-leukemic control cell line), 30 μM): 68.9 ± 0.03%
viability at 24 h, 50 µM ([7]; Hek293T cells (non-leukemic control cell line), 50 μM): 62.2 ± 0.02%
viability at 24 h, 70 µM ([7]; Hek293T cells (non-leukemic control cell line), 70 μM): 56.2 ± 0.04%
viability at 24 h, 100 µM ([7]; Hek293T cells (non-leukemic control cell line), 100 μM): 54.8 ± 0.02%
viability at 24 h, 150 µM ([7]; Hek293T cells (non-leukemic control cell line), 150 μM): 46.9 ± 0.02%
viability at 24 h, 200 µM ([7]; Hek293T cells (non-leukemic control cell line), 200 μM): 42.8 ± 0.02%
viability at 24 h, 1 µM ([7]; Hek293T cells, 1 μM): 89.5 ± 0.05%
